From ChEMBL document CHEMBL1144095, “A new labdane diterpenoid from Renealmia alpinia collected in the Suriname rainforest” (1999)

Tested on: Saccharomyces cerevisiae
Assay: Antifungal activity against Saccharomyces cerevisiae
Assay type: functional

**Q.** With `C=C1CC[C@H]2C(C)(C)CCC[C@]2(C)[C@H]1CC1OC(O)C=C1C(=O)O` (stereo partly specified) as the compound, how does the IC12 read?
**A.** 150 µg/mL
